From PMC12348844, “Anti-Trypanosoma cruzi Potential of New Pyrazole-Imidazoline Derivatives” (Molecules, 2025)

Tests used:
[1] = tested on: T. cruzi Dm28c-Luc in cardiac spheroids; experiment: Efficacy in T. cruzi-infected 3D cardiac microtissues; assay type: cell-based; details: Trypanosoma cruzi, 72 h, read-out: inhibition of parasite load in infected cardiac spheroids
Procedure: Three-dimensional (3D) heart muscle cell cultures were obtained as previously described. Briefly, heart muscle cells were isolated from 18-day-old Swiss Webster mouse fetuses. The ventricular tissue was fragmented and enzymatically dissociated using a trypsin and collagenase type II solution. The isolated cells were seeded at a density of 2.5 × 10^4 cells/well in 96-well U-bottom microplates previously coated with 1% agarose. The cells were cultured in Dulbecco’s modified Eagle Medium (DMEM) enriched with 10% FBS, 2.5 mM CaCl2, 1 mM L-glutamine, 2% chicken embryo extract, and a cocktail of antibiotics. The cultures were maintained at 37 °C in a 5% CO2 atmosphere. […]
The efficacy of the promising candidate was assessed using cardiac 3D microtissues. […] At the end of the experiment, luminescence was measured using a Glomax Multi-Detection plate reader (Promega Corporation, Madison, WI, USA) after adding luciferin solution, with results reported in arbitrary luminescence units (A.L.U). To enhance reliability and provide qualitative, orthogonal validation of these luminescence readings, we employed confocal fluorescence microscopy using 4′,6′-diamidino-2-phenylindole (DAPI) staining. […] Imaging was performed using a Zeiss LSM710 confocal fluorescence microscope (Carl Zeiss, Baden–Württemberg, Germany). […]

[2] = tested on: intracellular amastigotes of T. cruzi; experiment: Drug combination with Bz, fixed-ratio isobologram, intracellular amastigotes; assay type: cell-based; details: Trypanosoma cruzi; proportion 1k:Bz 5:0, 72 h; read-out: IC50 (Mean ± DP) in combination assay
Procedure: The isobologram approach assessed the interaction between Bz and the promising candidate in intracellular amastigotes of T. cruzi. Vero cell cultures infected with T. cruzi (Dm28c-Luc) were treated for 72 h with various concentrations of combinations of Bz and the promising candidate, specifically at ratios of 5:0; 4:1; 3:2; 2:3; 1:4 and 0:5. The maximum concentration of each compound was established based on their IC50 values, ensuring both reached the fourth dilution in the serial dilution setup (1:3), culminating in a total of seven dilutions. After 72 h of treatment, parasite viability was measured by luminescence in a Glomax Multi-Detection plate reader (Promega Corporation, Madison, WI, USA) after incubation with luciferin. The IC50 values of each treatment combination were calculated individually, and the fractional inhibitory concentration index (FICI) was derived using the formula FICI = IC50 of the combination/IC50 of the compound alone. The overall FICI (ΣFICI) was calculated by summing the FICIs for both compounds in each combination group, while the average ΣFICI (xΣFICI) represented the overall mean across all combination groups. The xΣFICI values were then employed to classify the interaction as synergistic (xΣFICI ≤ 0.5), additive (0.5 < xΣFICI < 4), or antagonistic (xΣFICI > 4). […]

T. cruzi (Dm28c-Luc) = experiment: Reversibility (washout) assay in T. cruzi-infected Vero cells; assay type: cell-based, Trypanosoma cruzi; details: for parasite load of cell monolayer at 21 dpi (luminescence): untreated 5 × 10^5 A.L.U
Procedure: After treatment, the cultures were thoroughly washed, and parasite recrudescence was evaluated over an extended period of 10 days in RPMI medium supplemented with 10% fetal bovine serum (FBS). Culture supernatants were collected at intervals, and the luminescence signal indicative of trypomastigote release was assessed using a Glomax Multi-Detection plate reader (Promega Corporation, Madison, WI, USA) following the addition of luciferin every 2–3 days. At the experiment’s conclusion, the infection profile of the monolayer was also examined. Cells were fixed with PFA for 20 min at 4 °C, then stained with DAPI for microscopy analysis. Luminescence data were expressed in arbitrary luminescent units (A.L.U), and fluorescence images were acquired using the ImageXpress Micro XLS high-content screening (HCS) system (Molecular Devices, Sunnyvale, CA, USA).

FC(F)(F)c1ccc(-n2cc(C3=NCCN3)cn2)cc1 [1k, 1-(4-trifluoromethylphenyl)-4-(4,5-dihydro-1H-imidazol-2-yl)-1H-pyrazole]
inhibition at 28.8 µM ([1]; 28.8 µM): 90%
inhibition at 57.6 µM ([1]; 57.6 µM): 94%
IC50 [2]: 3.75 ± 0.35 µM
parasite load of cell monolayer at 21 dpi (luminescence) (T. cruzi (Dm28c-Luc); 28.8 µM): 4 × 10^4 A.L.U
parasite load of cell monolayer at 21 dpi (luminescence) (T. cruzi (Dm28c-Luc); 57.6 µM): 1.1 × 10^4 A.L.U
sterility of cultures in reversibility assay (T. cruzi (Dm28c-Luc); 10 days treatment, tested conditions): failed to achieve sterility
inhibition at 28.8 µM (T. cruzi (Dm28c-Luc); Trypanosoma cruzi, Vero, 240 h, 28.8 µM (IC90), 10 days treatment + 10 days washout, read-out: inhibition of parasite load of cell monolayer at 21 dpi): 92%
